In patent publication US11866431B2, “Bicyclic compounds” (Vivace Therapeutics, Inc., priority 2018, dated 2024):

What follows are molecules tested on 8XTBD luciferase reporter (YAP reporter) in HEK293T cells (assay: YAP Reporter Assay). Conditions: Homo sapiens, HEK-293T; HEK293T cells stably transfected with 8XTBD luciferase reporter and pRLTK; 24-hr incubation; top concentration 3 μM; read-out: Firefly Luciferase IC50.
Type: cell-based
Procedure: HEK293T cells stably transfected with 8XTBD luciferase reporter and pRLTK in 384-well plates were treated with the test compounds, starting from 3 μM (final concentration in assay plate), 1:3 dilution, and 10 points in quadruplicates. Post 24-hr incubation with compounds at 37° C. and 5% CO2, cells were lysed and 8XTBD-driven firefly luciferase and control TK-driven renilla luciferase activities were measured using Promega Dual-Luciferase Reporter Assay System.
Reagents: The reagents used for this study are: DMEM: Invitrogen #11960077, Dual-Glo Luciferase Assay System: Promega-E2980, Puromycin Dihydrochloride: Invitrogen-A1113803, 384-well plate: PerkinElmer-6007480, L-GLUTAMINE: Invitrogen-25030164, Hygromycin B: Invitrogen-10687010, and Penicillin-Streptomycin: Merk-TMS-AB2-C
Media: The media used for this assay were: Culture Medium: DMEM+1 ug/mL puromycin+200 ug/mL hygromycin (with 10% FBS+1 mM L-glutamine); and Assay Medium: DMEM (with 10% FBS+1 mM L-glutamine+1×P/S).
Cell Plating: The appropriate media was warmed at 37° C. by water bath: Culture Medium, Assay Medium, 1*D-PBS, 0.05% trypsin-EDTA. The cells were trypsinized after removing all media, then washed with 1*sterile D-PBS and then with 2 ml 0.05% trypsin-EDTA. The cells were then incubated at RT for one minute. Then 10 ml/75 cm2 flask Assay Medium was added to each flask. Using a 10 ml pipette, the cells were then gently resuspended in the media, until the clumps completely disappeared. The cells were then transferred into 50 ml centrifuge tubes and were centrifuged at 800 rpm for 5 mins. The medium was removed and the cells were resuspended with Assay Medium. An aliquot of cells was used to count the cell density (cells/ml). The cell suspension was then diluted with Assay Medium to a concentration of 6×10^4 cells/ml. 50 ul cells suspension was then plated to 384-well plate (PerkinElmer-6007480), 3×10^3 cells/well and the cells were incubated in an incubator at 37° C. 5% CO2.
Compound Treatment: In the afternoon (incubation of the plate with 3-4 hrs), the test compounds were added by Echo, starting from 3 uM (final concentration in the assay plate), 1:3 dilution, 10 points, quadruplicates. The plate was placed at 37° C. 5% CO2 incubator for 24 hrs.
Detection: The Dual-Glo Luciferase Reagent was prepared by transferring the contents of one bottle of Dual-Glo Luciferase Buffer to one bottle of Dual-Glo Luciferase Substrate to create the Dual-Glo Luciferase Reagent. Mixing was performed by inversion until the substrate was thoroughly dissolved. After mixing, the reagent was aliquoted into 15 ml tubes. In the afternoon (24 hrs post compound treatment), the DMEM+ medium in the 384 well plates were aspirated by Microplate Washer.
Measuring firefly luciferase activity: 20 ul Dual-Glo Luciferase Reagent was added to the 384-well plates. The plates were protected from light to prevent interference with the assay. The plates were shaken for 1 min followed centrifuging plates at 1000 rpm for 30 seconds. After waiting at least 10 minutes, the firefly luminescence was measured by Envision.
Measuring renilla luciferase activity: 20 ul Stop-Glo Reagent was added to the 384-well plates. The plates were shaken for 1 min and then centrifuged at 1000 rpm for 30 seconds. After waiting at least 10 minutes, the renilla luminescence was measured by Envision.
Compound IC50 and maximum inhibition on the firefly luciferase and renilla luciferase activities were reported separately.

`NC(=O)/C=C/CCNC(=O)c1ccc2c(-c3ccc(C(F)(F)F)cc3)cccc2c1` [Compound 222, N-[(E)-5-amino-5-oxo-pent-3-enyl]-5-[4-(trifluoromethyl)phenyl]naphthalene-2-carboxamide] and `O=C(NCCO)c1ccc2c(-c3ccc(C(F)(F)F)cc3)cccc2c1` [Compound 86, N-(2-hydroxyethyl)-5-(4-(trifluoromethyl)phenyl)-2-naphthamide] cannot be ordered by IC50: < 100 nM for the first, < 100 nM for the second.

`C[C@@H](NC(=O)c1ccc2c(-c3ccc(C(F)(F)F)cc3)cccc2c1)c1nnn(C)n1` [Compound 279, (R)—N-(1-(2-methyl-2H-tetrazol-5-yl)ethyl)-5-(4-(trifluoromethyl)phenyl)-2-naphthamide] and `CC(C)NC(=O)c1ccc2c(-c3ccc(C(F)(F)F)cc3)cccc2c1` [Compound 1, N-isopropyl-5-(4-(trifluoromethyl)phenyl)-2-naphthamide] cannot be ordered by IC50: < 100 nM for the first, < 100 nM for the second.

`COC[C@H](C)NC(=O)c1ccc2c(-c3ccc(C(F)(F)F)cc3)cc(OC)cc2c1` [Compound 294, (S)-7-Methoxy-N-(1-methoxypropan-2-yl)-5-(4-(trifluoromethyl)phenyl)-2-naphthamide] and `COc1cc(-c2ccc(C(F)(F)F)cc2)c2ccc(C(=O)N[C@H](C)CO)cc2c1` [Compound 297, (R)—N-(1-Hydroxypropan-2-yl)-7-methoxy-5-(4-(trifluoromethyl)phenyl)-2-naphthamide] cannot be ordered by IC50: < 100 nM for the first, < 100 nM for the second.

Compared with `C[C@H](CN1CCCC1)NC(=O)c1ccc2c(-c3ccc(C(F)(F)F)cc3)cccc2c1` [Compound 67, (R)—N-(1-(pyrrolidin-1-yl)propan-2-yl)-5-(4-(trifluoromethyl)phenyl)-2-naphthamide], `C[C@H](NC(=O)c1ccc2c(-c3ccc(C(F)(F)F)cc3)cccc2c1)C1COC1` [Compound 269, (S)—N-(1-(oxetan-3-yl)ethyl)-5-(4-(trifluoromethyl)phenyl)-2-naphthamide] is lower in IC50: 100 to 1000 nM for the first, < 100 nM for the second. The second is the more potent here.

First: O=C(NCc1ccnc(Cl)n1)c1ccc2c(-c3ccc(C(F)(F)F)cc3)cccc2c1 [Compound 180, N-((2-chloropyrimidin-4-yl)methyl)-5-(4-(trifluoromethyl)phenyl)-2-naphthamide]
Second: O=C(NCc1ncsn1)c1ccc2c(-c3ccc(C(F)(F)F)cc3)cccc2c1 [Compound 193, N-((1,2,4-thiadiazol-3-yl)methyl)-5-(4-(trifluoromethyl)phenyl)-2-naphthamide]
The IC50 of the first is higher: 100 to 1000 nM for the first, < 100 nM for the second. The second is the more potent here.

Compared with `Cc1cc(-c2ccc(C(F)(F)F)cc2)c2ccc(C(=O)NC(C)C)cc2c1` [Compound 41, N-isopropyl-7-methyl-5-(4-(trifluoromethyl)phenyl)-2-naphthamide], `CC(C)NC(=O)c1ccc2c(-c3ccc(C(F)(F)F)cc3)cc(=O)n(C)c2c1` [Compound 306, N-Isopropyl-1-methyl-2-oxo-4-(4-(trifluoromethyl)phenyl)-1,2-dihydroquinoline-7-carboxamide] is higher in IC50: < 100 nM for the first, 100 to 1000 nM for the second. The first is the more potent here.

`C[C@@H](NC(=O)c1ccc2c(-c3ccc(C(F)(F)F)cc3)cccc2c1)c1c[nH]cn1` [Compound 277, (R)—N-(1-(1H-imidazol-4-yl)ethyl)-5-(4-(trifluoromethyl)phenyl)-2-naphthamide] and `C[C@H](NC(=O)c1ccc2c(-c3ccc(C(F)(F)F)cc3)cccc2c1)c1cnccn1` [Compound 282, (S)—N-(1-(pyrazin-2-yl)ethyl)-5-(4-(trifluoromethyl)phenyl)-2-naphthamide] fall in the same range of IC50: 100 to 1000 nM for the first, 100 to 1000 nM for the second.

Compared with `CS(=O)(=O)NC(=O)c1cnc2c(-c3ccc(C(F)(F)F)cc3)cc(OC3CC3)cc2c1` [Compound 122, 6-cyclopropoxy-N-(methylsulfonyl)-8-(4-(trifluoromethyl)phenyl)quinoline-3-carboxamide], `O=C(O)c1cnc2c(-c3ccc(C(F)(F)F)cc3)cc(OC3CC3)cc2c1` [Compound 323, 6-cyclopropoxy-8-(4-(trifluoromethyl)phenyl)quinoline-3-carboxylic acid] is lower in IC50: 100 to 1000 nM for the first, < 100 nM for the second. The second is the more potent here.

Compared with `O=C(NCC/C=C/COc1ccon1)c1ccc2c(-c3ccc(C(F)(F)F)cc3)cccc2c1` [Compound 181, N-[(E)-5-isoxazol-3-yloxypent-3-enyl]-5-[4-(trifluoromethyl)phenyl]naphthalene-2-carboxamide], `O=C(NCc1ccnc(COc2ccon2)n1)c1ccc2c(-c3ccc(C(F)(F)F)cc3)cccc2c1` [Compound 171, N-((2-((Isoxazol-3-yloxy)methyl)pyrimidin-4-yl)methyl)-5-(4-(trifluoromethyl)phenyl)-2-naphthamide] is higher in IC50: < 100 nM for the first, 100 to 1000 nM for the second. The first is the more potent here.

First: N#CCCNC(=O)c1ccc2c(-c3ccc(C(F)(F)F)cc3)cccc2c1 [Compound 114, N-(2-cyanoethyl)-5-(4-(trifluoromethyl)phenyl)-2-naphthamide]
Second: CN(C#N)CCCNC(=O)c1ccc2c(-c3ccc(C(F)(F)F)cc3)cccc2c1 [Compound 127, N-(3-(N-methylcyanamido)propyl)-5-(4-(trifluoromethyl)phenyl)-2-naphthamide]
The IC50 of the first is lower: < 100 nM for the first, 100 to 1000 nM for the second. The first is the more potent here.

Compared with `CC(=O)N(C)c1ccc(-c2ccc(C(F)(F)F)cc2)c2ccc(C(=O)NC(C)C)cc12` [Compound 30, N-isopropyl-8-(N-methylacetamido)-5-(4-(trifluoromethyl)phenyl)-2-naphthamide], `CC(C)NC(=O)c1ccc2c(-c3ccc(C(F)(F)F)cc3)ccc(NS(C)(=O)=O)c2c1` [Compound 23, N-isopropyl-8-(methylsulfonamido)-5-(4-(trifluoromethyl)phenyl)-2-naphthamide] is lower in IC50: 100 to 1000 nM for the first, < 100 nM for the second. The second is the more potent here.

First: O=C(NC(CO)CO)c1ccc2c(-c3ccc(C(F)(F)F)cc3)cccc2c1 [Compound 56, N-(1,3-dihydroxypropan-2-yl)-5-(4-(trifluoromethyl)phenyl)-2-naphthamide]
Second: O=C(NC(CCO)CCO)c1ccc2c(-c3ccc(C(F)(F)F)cc3)cccc2c1 [Compound 161, N-(1,5-dihydroxypentan-3-yl)-5-(4-(trifluoromethyl)phenyl)-2-naphthamide]
The IC50 of the first is lower: < 100 nM for the first, 100 to 1000 nM for the second.

Compared with `COC(=O)c1ccc2c(-c3ccc(C(F)(F)F)cc3)cnc(Cl)c2c1` [Compound 10, Methyl 1-chloro-4-[4-(trifluoromethyl)phenyl]isoquinoline-7-carboxylate], `C[C@@H](NC(=O)c1ccc2c(-c3ccc(C(F)(F)F)cc3)cccc2c1)c1cnccn1` [Compound 283, (R)—N-(1-(pyrazin-2-yl)ethyl)-5-(4-(trifluoromethyl)phenyl)-2-naphthamide] is lower in IC50: 1000 to 3000 nM for the first, < 100 nM for the second.

Compared with `C[C@H](NC(=O)c1ccc2c(-c3ccc(C(F)(F)F)cc3)cccc2c1)c1cccc2ccc(=O)[nH]c12` [Compound 178, N-[(1S)-1-(2-oxo-1H-quinolin-8-yl)ethyl]-5-[4-(trifluoromethyl)phenyl]naphthalene-2-carboxamide], `N#Cc1cccc(CNC(=O)c2ccc3c(-c4ccc(C(F)(F)F)cc4)cccc3c2)c1` [Compound 215, N-(3-cyanobenzyl)-5-(4-(trifluoromethyl)phenyl)-2-naphthamide] is lower in IC50: 1000 to 3000 nM for the first, < 100 nM for the second.

`C[C@@H](NC(=O)c1cnc2c(-c3ccc(C(F)(F)F)cc3)cccc2c1)C1CN(CC(F)F)C1` [Compound 317, (R)—N-(1-(1-(2,2-difluoroethyl)azetidin-3-yl)ethyl)-8-(4-(trifluoromethyl)phenyl)quinoline-3-carboxamide] and `COc1cc(-c2ccc(C(F)(F)F)cc2)c2ncc(C(=O)N[C@H](C)c3ccccn3)cc2c1` [Compound 106, 6-methoxy-N-[(1R)-1-(2-pyridyl)ethyl]-8-[4-(trifluoromethyl)phenyl]quinoline-3-carboxamide] fall in the same range of IC50: 100 to 1000 nM for the first, 100 to 1000 nM for the second.

Work on `CC(C)(CO)NC(=O)c1ccc2c(-c3ccc(C(F)(F)F)cc3)cccc2c1` [Compound 263, N-(1-hydroxy-2-methylpropan-2-yl)-5-(4-(trifluoromethyl)phenyl)-2-naphthamide] yielded an IC50 of 100 to 1000 nM.
